Measurements from ChEMBL document CHEMBL1201862, “PubChem BioAssay data set” (2004).
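How tested: cells in 96-well plates exposed to compound for 48 hours at five concentrations. GI50 is the concentration that inhibits growth by half.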 Calls of active or inactive are those of the source. Rule as the data show it: active = GI50 up to about 1.1 µM and inactive = higher.

Assays:
Assay in all cases: NCI tumour cell line growth inhibition, 48 h
SK-MEL-5 = test system: SK-MEL-5
A498 = test system: A498
M19-MEL = test system: M19-MEL
NCI-H460 = test system: NCI-H460
M14 = test system: M14
DLD-1 = test system: DLD-1
SR = test system: SR
K562 = test system: K562
SNB-78 = test system: SNB-78
HCT-116 = test system: HCT-116
DMS-114 = test system: DMS-114
HOP-62 = test system: HOP-62
UACC-62 = test system: UACC-62
OVCAR-5 = test system: OVCAR-5
TK-10 = test system: TK-10
NCI-H23 = test system: NCI-H23
SK-MEL-2 = test system: SK-MEL-2
HL-60 = test system: HL-60
OVCAR-3 = test system: OVCAR-3
SN12C = test system: SN12C
LXFL 529 = test system: LXFL 529
HOP-92 = test system: HOP-92
DMS-273 = test system: DMS-273
Malme-3M = test system: Malme-3M
UACC-257 = test system: UACC-257
XF498 = test system: XF498
HT-29 = test system: HT-29
SK-OV-3 = test system: SK-OV-3
RXF 393 = test system: RXF 393
EKVX = test system: EKVX
COLO 205 = test system: COLO 205
OVCAR-8 = test system: OVCAR-8
SF-295 = test system: SF-295
UO-31 = test system: UO-31
HCT-15 = test system: HCT-15
SNB-19 = test system: SNB-19
SF-539 = test system: SF-539
NCI-H226 = test system: NCI-H226
MOLT-4 = test system: MOLT-4
SW-620 = test system: SW-620
HCC 2998 = test system: HCC 2998
KM-20L2 = test system: KM-20L2
SNB-75 = test system: SNB-75
SK-MEL-28 = test system: SK-MEL-28
NCI-H522 = test system: NCI-H522
OVCAR-4 = test system: OVCAR-4
786-0 = test system: 786-0
SF-268 = test system: SF-268
LOX IMVI = test system: LOX IMVI
A549 = test system: A549
IGROV-1 = test system: IGROV-1
CCRF-CEM = test system: CCRF-CEM
ACHN = test system: ACHN
RPMI-8226 = test system: RPMI-8226
U-251 = test system: U-251
KM12 = test system: KM12
CAKI-1 = test system: CAKI-1
HOP-18 = test system: HOP-18

`CC(=O)OCC1OC(N2C(=O)[C@@H](Oc3ccccc3)[C@H]2/C=C/c2ccccc2)C(OC(C)=O)C(OC(C)=O)C1OC(C)=O` (stereo partly drawn) was tested, and the GI50 (SK-MEL-5) was > 100 µM (inactive), the GI50 (A498) was 72.4 µM (inactive) and the GI50 (M19-MEL) was > 100 µM (inactive). For the same molecule, the GI50 (NCI-H460) was > 100 µM (inactive), the GI50 (M14) was > 100 µM (inactive) and the GI50 (DLD-1) was > 100 µM (inactive). For the same molecule, the GI50 (SR) was > 100 µM (inactive), the GI50 (K562) was > 100 µM (inactive) and the GI50 (SNB-78) was > 100 µM (inactive). The GI50 (HCT-116) was > 100 µM (inactive), the GI50 (DMS-114) was > 100 µM (inactive) and the GI50 (HOP-62) was 40.1 µM (inactive). The GI50 (UACC-62) was > 100 µM (inactive), the GI50 (OVCAR-5) was > 100 µM (inactive) and the GI50 (TK-10) was > 100 µM (inactive). For the same molecule, the GI50 (NCI-H23) was > 100 µM (inactive), the GI50 (SK-MEL-2) was > 100 µM (inactive) and the GI50 (HL-60) was > 100 µM (inactive). For the same molecule, the GI50 (OVCAR-3) was > 100 µM (inactive), the GI50 (SN12C) was > 100 µM (inactive) and the GI50 (LXFL 529) was > 100 µM (inactive). For the same molecule, the GI50 (HOP-92) was 44.5 µM (inactive), the GI50 (DMS-273) was > 100 µM (inactive) and the GI50 (Malme-3M) was > 100 µM (inactive). The GI50 (UACC-257) was > 100 µM (inactive), the GI50 (XF498) was > 100 µM (inactive) and the GI50 (HT-29) was > 100 µM (inactive). The GI50 (SK-OV-3) was > 100 µM (inactive), the GI50 (RXF 393) was > 100 µM (inactive) and the GI50 (EKVX) was > 100 µM (inactive). For the same molecule, the GI50 (COLO 205) was > 100 µM (inactive), the GI50 (OVCAR-8) was > 100 µM (inactive) and the GI50 (SF-295) was 53.6 µM (inactive). For the same molecule, the GI50 (UO-31) was > 100 µM (inactive), the GI50 (HCT-15) was > 100 µM and the GI50 (SNB-19) was 31.6 µM (inactive). For the same molecule, the GI50 (SF-539) was > 100 µM (inactive), the GI50 (NCI-H226) was > 100 µM (inactive) and the GI50 (MOLT-4) was > 100 µM (inactive). The GI50 (SW-620) was > 100 µM (inactive), the GI50 (HCC 2998) was > 100 µM (inactive) and the GI50 (KM-20L2) was > 100 µM (inactive). The GI50 (SNB-75) was 31.1 µM (inactive), the GI50 (SK-MEL-28) was > 100 µM (inactive) and the GI50 (NCI-H522) was > 100 µM (inactive). For the same molecule, the GI50 (OVCAR-4) was > 100 µM (inactive), the GI50 (786-0) was > 100 µM (inactive) and the GI50 (SF-268) was 72.4 µM (inactive). The GI50 (LOX IMVI) was > 100 µM (inactive), the GI50 (A549) was > 100 µM (inactive) and the GI50 (IGROV-1) was > 100 µM (inactive). For the same molecule, the GI50 (CCRF-CEM) was > 100 µM (inactive), the GI50 (ACHN) was > 100 µM (inactive) and the GI50 (RPMI-8226) was > 100 µM (inactive). The GI50 (U-251) was 58.9 µM (inactive).
For `CCOC(=O)C1N(S(=O)(=O)c2ccc(C)cc2)CCC12c1ccccc1N(C(C)=O)C2C(/C=C/C(=O)OC)=C/C(=O)OC` (stereo not drawn), the GI50 (SK-MEL-5) was > 100 µM (inactive), the GI50 (A498) was > 100 µM (inactive) and the GI50 (M19-MEL) was > 100 µM (inactive). The GI50 (NCI-H460) was > 100 µM (inactive), the GI50 (M14) was > 100 µM (inactive) and the GI50 (DLD-1) was > 100 µM (inactive). For the same molecule, the GI50 (K562) was 85.3 µM (inactive), the GI50 (SNB-78) was > 100 µM (inactive) and the GI50 (HCT-116) was > 100 µM (inactive). For the same molecule, the GI50 (DMS-114) was > 100 µM (inactive), the GI50 (HOP-62) was > 100 µM (inactive) and the GI50 (UACC-62) was > 100 µM (inactive). The GI50 (OVCAR-5) was > 100 µM (inactive), the GI50 (TK-10) was > 100 µM (inactive) and the GI50 (NCI-H23) was > 100 µM (inactive). For the same molecule, the GI50 (HL-60) was 66.8 µM (inactive), the GI50 (OVCAR-3) was > 100 µM (inactive) and the GI50 (SN12C) was > 100 µM (inactive). The GI50 (LXFL 529) was > 100 µM (inactive), the GI50 (HOP-92) was 44.1 µM (inactive) and the GI50 (KM12) was > 100 µM (inactive). For the same molecule, the GI50 (DMS-273) was 89.9 µM (inactive), the GI50 (Malme-3M) was > 100 µM (inactive) and the GI50 (UACC-257) was > 100 µM (inactive). For the same molecule, the GI50 (CAKI-1) was > 100 µM (inactive), the GI50 (XF498) was > 100 µM (inactive) and the GI50 (HT-29) was > 100 µM (inactive). The GI50 (SK-OV-3) was > 100 µM (inactive), the GI50 (RXF 393) was > 100 µM (inactive) and the GI50 (EKVX) was > 100 µM (inactive). The GI50 (COLO 205) was > 100 µM (inactive), the GI50 (OVCAR-8) was > 100 µM (inactive) and the GI50 (SF-295) was > 100 µM (inactive). For the same molecule, the GI50 (UO-31) was > 100 µM (inactive), the GI50 (SNB-19) was > 100 µM (inactive) and the GI50 (SF-539) was > 100 µM (inactive). The GI50 (NCI-H226) was > 100 µM (inactive), the GI50 (SW-620) was > 100 µM (inactive) and the GI50 (HCC 2998) was > 100 µM (inactive). For the same molecule, the GI50 (KM-20L2) was > 100 µM (inactive), the GI50 (SNB-75) was > 100 µM (inactive) and the GI50 (SK-MEL-28) was > 100 µM (inactive). The GI50 (NCI-H522) was > 100 µM (inactive), the GI50 (OVCAR-4) was > 100 µM (inactive) and the GI50 (786-0) was > 100 µM (inactive). The GI50 (SF-268) was > 100 µM (inactive), the GI50 (LOX IMVI) was > 100 µM (inactive) and the GI50 (A549) was 84.1 µM (inactive). For the same molecule, the GI50 (IGROV-1) was > 100 µM (inactive), the GI50 (CCRF-CEM) was > 100 µM (inactive) and the GI50 (ACHN) was > 100 µM (inactive). For the same molecule, the GI50 (RPMI-8226) was 62.5 µM (inactive) and the GI50 (U-251) was > 100 µM (inactive).
`O=c1c2cc(O)ccc2n2nnc3ccc(NCCNCCO)c1c32` was tested, and the GI50 (HOP-18) was 24.3 µM (inactive), the GI50 (HCT-116) was 2.65 µM (inactive) and the GI50 (DMS-114) was 1.71 µM (inactive). For the same molecule, the GI50 (NCI-H23) was 5.92 µM (inactive), the GI50 (LXFL 529) was 1.86 µM (inactive) and the GI50 (HOP-92) was 2.06 µM (inactive). The GI50 (KM12) was 11.2 µM (inactive), the GI50 (CAKI-1) was 4.2 µM (inactive) and the GI50 (HT-29) was 6.62 µM (inactive). For the same molecule, the GI50 (SK-OV-3) was 5.4 µM (inactive), the GI50 (EKVX) was 14.5 µM (inactive) and the GI50 (COLO 205) was 4.26 µM (inactive). For the same molecule, the GI50 (OVCAR-8) was 1.86 µM (inactive), the GI50 (SF-295) was 11.7 µM (inactive) and the GI50 (UO-31) was 16.3 µM (inactive). The GI50 (HCT-15) was 49.1 µM, the GI50 (SNB-19) was 4.85 µM (inactive) and the GI50 (SF-539) was 3.85 µM (inactive). The GI50 (NCI-H226) was 2.31 µM (inactive), the GI50 (OVCAR-4) was 3.84 µM (inactive) and the GI50 (786-0) was 3.55 µM (inactive). For the same molecule, the GI50 (SF-268) was 1.59 µM (inactive), the GI50 (LOX IMVI) was 1.71 µM (inactive) and the GI50 (RPMI-8226) was 14.1 µM (inactive). The GI50 (U-251) was 1.82 µM (inactive).
